These results are taken from patent US20250163104A1, “MACROCYCLIC IMMUNOMODULATORS” (priority 2021, published 2025).

This assay addresses T1, human PD-1 / PD-L1-Ig binding on Jurkat cell line over-expressing human PD-1 (Jurkat-PD-1) (Homo sapiens, UniProt Q15116).
T1 construct: expressed in transfected cells; host or cells: Jurkat
The assay is described as follows: Jurkat-PD-1 Cell Binding High-Content Screening Assay (CBA). Type of assay: cell-based. The conditions noted are these: Jurkat-PD-1 cells, PE-labeled PD-L1-Ig 20 nM final; read-out: Jurkat HPD1_PDL1 IC50. An outline of the steps: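 Cell-bound PE-labeled PD-L1-Ig (20 nM final, 1 h) measured by high-content imaging after fixation and Hoechst 33342 counterstain. Compound was applied first for 2 h at 37° C. to Jurkat cells over-expressing human PD-1 in DMEM with 10% FCS.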

The structures appear in SMILES notation. Where a SMILES comes first, the peptide text is derived from it. Bridges are numbered along the chain shown (N, C = ends). [ ]: non-standard residue; d: D form. The star is where a group is joined. ξ: configuration not given here. Phe(3,4,5-F3) = N[C@@H](Cc1cc(F)c(F)c(F)c1)C(=O)O; Phe(3-CF3) = N[C@@H](Cc1cccc(C(F)(F)F)c1)C(=O)O; Phe(4-COOH) = N[C@@H](Cc1ccc(C(=O)O)cc1)C(=O)O; Phe(4-CH2NH2) = NCc1ccc(C[C@H](N)C(=O)O)cc1; Bip = N[C@@H](Cc1ccc(-c2ccccc2)cc1)C(=O)O; Phe(3-Me) = Cc1cccc(C[C@H](N)C(=O)O)c1; Phe(2-F) = N[C@@H](Cc1ccccc1F)C(=O)O; Val(3-OH) = CC(C)(O)[C@H](N)C(=O)O; 4Pal = N[C@@H](Cc1ccncc1)C(=O)O; 2Thi = N[C@@H](Cc1cccs1)C(=O)O; Cha = N[C@@H](CC1CCCCC1)C(=O)O; Cit = NC(=O)NCCC[C@H](N)C(=O)O; Ile(3ξ) = CCC(C)[C@H](N)C(=O)O; dCha = N[C@H](CC1CCCCC1)C(=O)O; Thr(3ξ) = CC(O)[C@H](N)C(=O)O; Carboxymethyl = O=C(O)C*; Orn = NCCC[C@H](N)C(=O)O; Dab = NCC[C@H](N)C(=O)O; Dap = NC[C@H](N)C(=O)O; ξPra = C#CCC(N)C(=O)O

T1 sequence (Q15116 25-288): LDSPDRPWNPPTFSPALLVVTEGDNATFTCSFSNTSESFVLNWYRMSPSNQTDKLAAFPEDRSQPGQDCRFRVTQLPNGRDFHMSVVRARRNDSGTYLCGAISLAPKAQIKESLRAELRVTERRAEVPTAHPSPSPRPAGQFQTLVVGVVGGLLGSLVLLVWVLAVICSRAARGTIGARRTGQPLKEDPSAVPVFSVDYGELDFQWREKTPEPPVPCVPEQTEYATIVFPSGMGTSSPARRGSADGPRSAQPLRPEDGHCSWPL

With `CCC(C)[C@@H]1NC(=O)[C@H](Cc2ccc(-c3ccccc3)cc2)NC(=O)[C@H](C(C)C)NC(=O)[C@H](Cc2c[nH]c3ccccc23)NC(=O)[C@H](CC(=O)O)NC(=O)[C@H](Cc2ccc(O)cc2)NC(=O)[C@H](Cc2ccncc2)NC(=O)CSC[C@@H](C(=O)N[C@@H](C)C(N)=O)NC(=O)[C@H](C(C)O)NC(=O)[C@H](C(C)C)NC(=O)[C@H](CC2CCCCC2)NC(=O)[C@H](CC(N)=O)NC(=O)[C@@H](CC(C)C)NC(=O)[C@H](Cc2ccc(CN)cc2)NC1=O` (stereo partly drawn) [Compound 2506] ({CH2CO}-[4Pal]YDWV[Bip][Ile(3ξ)][Phe(4-CH2NH2)][dL]N[Cha]V[Thr(3ξ)]CA-NH2; thioether N-14), the IC50 stood at 0.0706 µM. Under `CC(C)C[C@H]1NC(=O)[C@H](CCCN)NC(=O)[C@H](CCC(=O)O)NC(=O)[C@H](Cc2ccc(-c3ccccc3)cc2)NC(=O)[C@H](C(C)C)NC(=O)[C@H](Cc2cccc(C(F)(F)F)c2)NC(=O)[C@H](CC(=O)O)NC(=O)[C@H](Cc2ccc(OCC(=O)O)cc2)NC(=O)[C@H](Cc2ccc(OCC(=O)O)cc2)NC(=O)CSC[C@@H](C(=O)N[C@@H](C)C(N)=O)NC(=O)[C@H]([C@@H](C)O)NC(=O)[C@H](C(C)C)NC(=O)[C@H](CC2CCCCC2)NC(=O)[C@H](CCN)NC1=O` [Compound 1465] stands 0.0274 µM.

In the case of `CC(C)C[C@H]1NC(=O)[C@H](CCCN)NC(=O)[C@H](CCC(=O)O)NC(=O)[C@H](Cc2ccc(-c3ccccc3)cc2)NC(=O)[C@H](C(C)C)NC(=O)[C@H](Cc2c[nH]c3ccccc23)NC(=O)[C@H](CC(=O)O)NC(=O)[C@H](Cc2ccc(OCC(=O)O)cc2)NC(=O)[C@H](CN)NC(=O)CSC[C@@H](C(=O)N[C@@H](C)C(N)=O)NC(=O)[C@H]([C@@H](C)O)NC(=O)[C@H](C(C)C)NC(=O)[C@H](Cc2cc(F)c(F)c(F)c2)NC(=O)[C@H](CCN)NC1=O` [Compound 1480] ({CH2CO}-[Dap]Y(Carboxymethyl)DWV[Bip]E[Orn][dL][Dab][Phe(3,4,5-F3)]VTCA-NH2; thioether N-14), the half-maximal inhibitory concentration (IC50) came out at 0.15 µM. Turning to `CC(C)[C@@H]1NC(=O)[C@H](Cc2c[nH]c3ccccc23)NC(=O)[C@H](CC(=O)O)NC(=O)[C@H](Cc2ccc(OCC(=O)O)cc2)NC(=O)[C@H](Cc2ccncc2)NC(=O)CSC[C@@H](C(=O)N[C@@H](C)C(N)=O)NC(=O)[C@H]([C@@H](C)O)NC(=O)[C@H](C(C)C)NC(=O)[C@H](CC2CCCCC2)NC(=O)[C@H](CCN)NC(=O)[C@@H](CC2CCCCC2)NC(=O)[C@H](CCCN)NC(=O)[C@H](CCCNC(N)=O)NC(=O)[C@H](Cc2ccc(-c3ccccc3)cc2)NC1=O` [Compound 1644] ({CH2CO}-[4Pal]Y(Carboxymethyl)DWV[Bip][Cit][Orn][dCha][Dab][Cha]VTCA-NH2; thioether N-14), the IC50 is 0.0167 µM.

As to `CC(C)C[C@H]1NC(=O)[C@H](CCCN)NC(=O)[C@H](CCC(=O)O)NC(=O)[C@H](Cc2ccc(-c3ccccc3)cc2)NC(=O)[C@H](C(C)C)NC(=O)[C@H](Cc2cccc(C(F)(F)F)c2)NC(=O)[C@H](CC(=O)O)NC(=O)[C@H](Cc2ccc(O)cc2)NC(=O)[C@H](CC(N)=O)NC(=O)CSC[C@@H](C(=O)N[C@@H](C)C(N)=O)NC(=O)[C@H]([C@@H](C)O)NC(=O)[C@H](C(C)C)NC(=O)[C@H](CC2CCCCC2)NC(=O)[C@H](CCN)NC1=O` [Compound 1457] ({CH2CO}-NYD[Phe(3-CF3)]V[Bip]E[Orn][dL][Dab][Cha]VTCA-NH2; thioether N-14), the IC50 turned out to be 0.0198 µM. In the case of `CC(C)C[C@@H]1NC(=O)[C@H](Cc2c[nH]c3ccccc23)NC(=O)[C@H](CC(=O)O)NC(=O)[C@H](Cc2ccncc2)NC(=O)[C@H](Cc2ccc(OCC(=O)O)cc2)NC(=O)CSC[C@@H](C(=O)NCC(N)=O)NC(=O)[C@H](CO)NC(=O)[C@H](C(C)C)NC(=O)[C@H](CC(C)C)NC(=O)[C@H](CC(N)=O)NC(=O)[C@@H](CC(C)C)NC(=O)[C@H](CCCN)NC(=O)[C@H](C(C)C)NC(=O)[C@H](Cc2ccc(-c3ccccc3)cc2)NC1=O` [Compound 1286] ({CH2CO}-Y(Carboxymethyl)[4Pal]DWL[Bip]V[Orn][dL]NLVSCG-NH2; thioether N-14) it was 0.0503 µM; in that of `Cc1cccc(C[C@@H]2NC(=O)[C@H](CC(=O)O)NC(=O)[C@H](Cc3ccc(OCC(=O)O)cc3)NC(=O)[C@H](Cc3ccncc3)NC(=O)CSC[C@@H](C(=O)N[C@@H](CCN)C(N)=O)NC(=O)[C@H](CO)NC(=O)[C@H](C(C)(C)O)NC(=O)[C@H](CC3CCCCC3)NC(=O)[C@H](CCN)NC(=O)[C@@H](CC(C)C)NC(=O)[C@H](CCC(N)=O)NC(=O)[C@H](Cc3ccc(C(=O)O)cc3)NC(=O)[C@H](Cc3ccc(-c4ccccc4)cc3)NC(=O)[C@H](Cc3ccc(C(=O)O)cc3)NC2=O)c1` [Compound 2643] ({CH2CO}-[4Pal]Y(Carboxymethyl)D[Phe(3-Me)][Phe(4-COOH)][Bip][Phe(4-COOH)]Q[dL][Dab][Cha][Val(3-OH)]SC[Dab]-NH2; thioether N-14), 0.0073 µM; in that of `Cc1cccc(C[C@@H]2NC(=O)[C@H](CC(=O)O)NC(=O)[C@H](Cc3ccc(C(=O)O)cc3)NC(=O)[C@H](Cc3ccncc3)NC(=O)CSC[C@@H](C(=O)N[C@@H](CCN)C(N)=O)NC(=O)[C@H](CO)NC(=O)[C@H](C(C)(C)O)NC(=O)[C@H](CC3CCCCC3)NC(=O)[C@H](CCN)NC(=O)[C@@H](CC(C)C)NC(=O)[C@H](CCCN)NC(=O)[C@H](Cc3ccc(C(=O)O)cc3)NC(=O)[C@H](Cc3ccc(-c4ccccc4)cc3)NC(=O)[C@H](Cc3ccc(OCC(=O)O)cc3)NC2=O)c1` [Compound 2661] ({CH2CO}-[4Pal][Phe(4-COOH)]D[Phe(3-Me)]Y(Carboxymethyl)[Bip][Phe(4-COOH)][Orn][dL][Dab][Cha][Val(3-OH)]SC[Dab]-NH2; thioether N-14), 0.201 µM. In the case of `C#CCC(NC(=O)[C@H](CN)NC(=O)[C@@H]1CSCC(=O)N[C@@H](Cc2ccncc2)C(=O)N[C@@H](Cc2ccc(OCC(=O)O)cc2)C(=O)N[C@@H](CC(=O)O)C(=O)N[C@@H](Cc2c[nH]c3ccccc23)C(=O)N[C@@H](C(C)C)C(=O)N[C@@H](Cc2ccc(-c3ccccc3)cc2)C(=O)N[C@@H]([C@@H](C)CC)C(=O)N[C@@H](CCCN)C(=O)N[C@H](CC(C)C)C(=O)N[C@@H](CCN)C(=O)N[C@@H](CC(C)C)C(=O)N[C@@H](C(C)C)C(=O)N[C@@H]([C@@H](C)O)C(=O)N1)C(N)=O` (stereo partly drawn) [Compound 1764] ({CH2CO}-[4Pal]Y(Carboxymethyl)DWV[Bip]I[Orn][dL][Dab]LVTC[Dap][ξPra]-NH2; thioether N-14) it was 0.0331 µM; in that of `Cc1cccc(C[C@@H]2NC(=O)[C@H](CC(=O)O)NC(=O)[C@H](Cc3ccc(C(=O)O)cc3)NC(=O)[C@H](Cc3ccncc3)NC(=O)CSC[C@@H](C(N)=O)NC(=O)[C@H](CCC(N)=O)NC(=O)[C@H](C(C)C)NC(=O)[C@H](CC3CCCCC3)NC(=O)[C@H](CCN)NC(=O)[C@@H](CC(C)C)NC(=O)[C@H](CCCN)NC(=O)[C@H](CCCNC(N)=O)NC(=O)[C@H](Cc3ccc(-c4ccccc4)cc3)NC(=O)[C@H](C(C)C)NC2=O)c1` [Compound 2272] ({CH2CO}-[4Pal][Phe(4-COOH)]D[Phe(3-Me)]V[Bip][Cit][Orn][dL][Dab][Cha]VQC-NH2; thioether N-14), 0.032 µM; in that of `Cc1cccc(C[C@@H]2NC(=O)[C@H](CC(=O)O)NC(=O)[C@H](Cc3ccc(C(=O)O)cc3)NC(=O)[C@H](Cc3ccncc3)NC(=O)CSC[C@@H](C(N)=O)NC(=O)[C@H](CO)NC(=O)[C@H](C(C)C)NC(=O)[C@H](CC3CCCCC3)NC(=O)[C@H](CCN)NC(=O)[C@@H](CC(C)C)NC(=O)[C@H](CCCN)NC(=O)[C@H](CCCNC(N)=O)NC(=O)[C@H](Cc3ccc(-c4ccccc4)cc3)NC(=O)[C@H](C(C)C)NC2=O)c1` [Compound 2268] ({CH2CO}-[4Pal][Phe(4-COOH)]D[Phe(3-Me)]V[Bip][Cit][Orn][dL][Dab][Cha]VSC-NH2; thioether N-14), 0.0268 µM. Under `CC(C)C[C@H]1NC(=O)[C@H](CCCN)NC(=O)[C@H](CCC(=O)O)NC(=O)[C@H](Cc2ccc(-c3ccccc3)cc2)NC(=O)[C@H](C(C)C)NC(=O)[C@H](Cc2ccccc2F)NC(=O)[C@H](CC(=O)O)NC(=O)[C@H](Cc2ccncc2)NC(=O)[C@H](Cc2ccc(OCC(=O)O)cc2)NC(=O)CSC[C@@H](C(=O)N[C@@H](C)C(N)=O)NC(=O)[C@H]([C@@H](C)O)NC(=O)[C@H](C(C)C)NC(=O)[C@H](CC2CCCCC2)NC(=O)[C@H](CCN)NC1=O` [Compound 2210] ({CH2CO}-Y(Carboxymethyl)[4Pal]D[Phe(2-F)]V[Bip]E[Orn][dL][Dab][Cha]VTCA-NH2; thioether N-14) stands 0.0251 µM; under `CC(C)C[C@H]1NC(=O)[C@H](CCCN)NC(=O)[C@H](CCC(=O)O)NC(=O)[C@H](Cc2ccc(-c3ccccc3)cc2)NC(=O)[C@H](C(C)C)NC(=O)[C@H](Cc2c[nH]c3ccccc23)NC(=O)[C@H](CC(=O)O)NC(=O)[C@H](Cc2cccs2)NC(=O)[C@H](Cc2ccncc2)NC(=O)CSC[C@@H](C(=O)N[C@@H](C)C(N)=O)NC(=O)[C@H]([C@@H](C)O)NC(=O)[C@H](C(C)C)NC(=O)[C@H](CC2CCCCC2)NC(=O)[C@H](CCN)NC1=O` [Compound 2194] ({CH2CO}-[4Pal][2Thi]DWV[Bip]E[Orn][dL][Dab][Cha]VTCA-NH2; thioether N-14), 0.0165 µM. On to `CC(C)C[C@H]1NC(=O)[C@H](CCCN)NC(=O)[C@H](C(C)C)NC(=O)[C@H](Cc2ccc(-c3ccccc3)cc2)NC(=O)[C@H](C(C)C)NC(=O)[C@H](Cc2c[nH]c3ccccc23)NC(=O)[C@H](CC(=O)O)NC(=O)[C@H](Cc2ccc(OCC(=O)O)cc2)NC(=O)[C@H](CN)NC(=O)CSC[C@@H](C(=O)N[C@@H](C)C(N)=O)NC(=O)[C@H]([C@@H](C)O)NC(=O)[C@H](C(C)C)NC(=O)[C@H](CC2CCCCC2)NC(=O)[C@H](CC(=O)O)NC1=O` [Compound 1521] ({CH2CO}-[Dap]Y(Carboxymethyl)DWV[Bip]V[Orn][dL]D[Cha]VTCA-NH2; thioether N-14), for which the IC50 was 0.0177 µM.

For orientation: IC50 means the midpoint of a concentration-inhibition curve.
